Reference: paper doi:10.64898/2025.12.31.695415v1, “Correlated dynamics, reactive conformations and non-Arrhenius behaviour in the temperature-dependence of enzyme activity: triosephosphate isomerase” (biorxiv, 2025)

Target: T1, meso-TIM (Saccharomyces cerevisiae, UniProt P00942)
T1 construct: gene TPI1; N-terminal His6 tag, pET28b, E. coli BL21(DE3); dimer; PDB 1NEY is the simulation model
T1 sequence (P00942 2-248): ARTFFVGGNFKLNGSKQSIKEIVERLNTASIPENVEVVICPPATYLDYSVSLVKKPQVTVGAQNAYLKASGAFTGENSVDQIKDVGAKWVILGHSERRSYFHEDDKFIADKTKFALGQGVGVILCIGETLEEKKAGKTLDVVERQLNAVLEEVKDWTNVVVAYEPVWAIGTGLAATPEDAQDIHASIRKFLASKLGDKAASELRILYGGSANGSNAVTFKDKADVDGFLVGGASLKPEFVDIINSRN
Test: stopped-flow, GAPD-coupled assay, […] nm
Type: biochemical
Conditions: 50 mM HEPES pH 7.4, 150 mM NaCl, 10 mM MgCl2, 2.5 mM (NH4)2SO4; two temperatures

`O=C(CO)COP(=O)(O)O` [dihydroxyacetone phosphate] was tested, and the Km was “substrate binding kinetics were determined at two temperatures”.
